From patent US20060062859A1, “Composition and method to optimize and customize nutritional supplement formulations by measuring genetic and metabolomic contributing factors to disease diagnosis, stratification, prognosis, metabolism, and therapeutic outcomes” (priority 2004, published 2006)
Read-outs that look alike come from different tables or passages of the source.

Legend:
[1] = cited from earlier work
[2] = system: opioid receptor; conditions: intra-VTA infusions; cited from earlier work
[3] = system: lipolysis; conditions: p <0.01; cited from earlier work
[4] = nucleus accumbens microinjections; cited from earlier work
[5] = people with RA; cited from earlier work
[6] = cited from earlier work; remark: listed apart in the source
[7] = 400 mcg, cited from earlier work
[8] = Chromium picolinate vs placebo in obese subjects genotyped for DRD2 (scale weight, DEXA body fat); assay type: in vivo, human; conditions: for change in fat weight, body weight, percent change in weight, body weight change in kg: A2/A2 carriers; for any parameter of weight change: subjects possessing a DRD2 A1 allele (A1/A1 or A1/A2)
Protocol: A Case Study: Chromium and Dopamine Genes. While there is still controversy regarding the effects of chromium salts (picolinate and nicotinate) on body composition and weight loss in general, recent work seems to support the positive change in body composition in humans. The inventors embarked on a study with chromium picolinate to test out the principles of nutrigenomics. In this study they genotyped obese subjects for the dopamine D2 receptors gene (DRD2). The subjects were assessed for scale weight and for percent body fat. The subjects were divided into matched placebo and chromium picolinate (CrP) groups. […] Moreover, the inventors propose for the first time that mixed effects now observed with CrP administration in terms of body composition, may be resolved by typing the patient via DRD2 genotyping prior to treatment with chromium salts.
To reiterate, Blum and associates found similar evidence with chromium picolinate, for the role of genes in physiological response with nutritional supplements. While there still is controversy regarding the effects of chromium salts (picolinate and nicotinate) on body composition and weight loss in general, recent unpublished work seems to support the positive change in body composition in humans. In consideration of the above study, Chen and Blum and others decided to genotype 130 overweight subjects for the dopamine D2 receptor gene. The subjects were assessed for scale weight and for percent body fat using dual energy X-ray absorptionmetry (DEXA R). The subjects were divided into matched placebo and chromium picolinate groups (400 μg. per day). The sample was separated into two independent groups; those with either an A1/A1 or A1/A2 allele and those with only the A2/A2 pattern. […] Moreover, we propose for the first time that mixed effects now observed with chromium picolinate in terms of body composition, may be resolved by typing the patient via dopamine D2 receptor genotyping prior to treatment with not only chromium salts, but with other nutritional supplements as well.
In terms of weight loss ingredients one nutrient Chromium Picolinate, one of the most widely used ingredient in the weight management field, pharmacogenomically responds differentially based on the DRD2genotype. Dr. Blum is current in revision on a publication detailing these findings. Here are some details on the abstract: • Thomas J H Chen, Kenneth Blum, * Gilbert Kaats, E. R. Braverman. Arthur Eisenberg, M. Sherman. K. Davis, D E Comings, R. Wood, D. Pullin. CHROMIUM PICOLINATE A PUTATIVE ANTI-OBESITY NUTRIENT INDUCES CHANGES IN BODY COMPOSITION AS A FUNCTION OF THE Taq1 DOPAMINE D2 RECEPTOR POLYMORPHISMS. International J. Of Eating Disorders (in revision). • Objective: There is still controversy regarding the effects of chromium salts (picolinate and nicotinate) on body composition and weight loss in humans. Thus, we decided to test the hypothesis that typing the obese patients by genotyping the DRD2 gene prior to treatment with Chromium Picolinate (CrP) would result in a differential treatment outcome. • Methods: We genotyped obese subjects for the dopamine D2 receptors gene (DRD2) utilizing standard PCR techniques. The subjects were assessed for scale weight and for percent body fat using dual energy X-ray absorptiometry (DEXAR). The subjects were divided into matched placebo and CrP groups (400 ug. per day) accordingly. The sample was separated into two independent groups. Those with either an A1/A1 or A1/A2 allele or those with only the A2/A2 allelic pattern.

[9] = after six months; cited from earlier work
[10] = 200 and 400 mcg, cited from earlier work

Compound: O=C1CC[C@@]2(O)[C@H]3Cc4ccc(O)c5c4[C@@]2(CCN3CC2CC2)[C@H]1O5 [Naltrexone]
- body weight ([1]; anorexic patients): weight gain
- binge-eating ([1]; bulimics): some reduction
- stress-induced activation of dopamine metabolism in the NAcc and prefrontal cortex [2]: prevent

Compound: C[C@]12CCC(=O)C=C1CC[C@@H]1[C@@H]2[C@@H](O)C[C@@]2(C)[C@H]1CC[C@]2(O)C(=O)CO [cortisol]
- basal rate of lipolysis [3]: significantly reduced

Compound: C[C@H](NC(=O)[C@@H](CC(=O)NO)Cc1ccccc1)C(=O)O [kelatrophan]
- intracranial self-stimulation [4]: reduced

Compound: CCCCC/C=C\C/C=C\C/C=C\CCCCC(=O)O [GLA, GAMMA-LINOLENIC ACID]
- RA symptoms [5]: significant improvements

Compound: Chromium Picolinate
- insulin response to an oral glucose load ([6]; exercise training combined with supplementation): lowered insulin response to an oral glucose load.
- body weight ([6]; supplementation alone): CrP supplementation resulted in significant weight gain,
- reduction in body fat vs placebo ([7]; p < 0.001): (p < 0.001) and body fat (p < 0.004), had a greater
- weight lost vs placebo ([7]; p < 0.001): 400 mcg CrP group lost significantly more weight
- body composition ([7]; p < 0.004): reduction in body fat (p < 0.001), significantly improve
- change in fat weight, body weight, percent change in weight, body weight change in kg [8]: changes in kgms were all significant in A2/A2 group,
- change in fat weight, body weight, percent change in weight, body weight change in kg ([8]; listed as CrP): significant in A2/A2 group and non
- change in fat weight, body weight, percent change in weight, body weight change in kg ([8]; listed as chromium picolinate): all significant
- any parameter of weight change [8]: no significance was found
- any parameter of weight change ([8]; listed as CRP): do not respond
- any parameter of weight change ([8]; listed as CrP): no significance was found
- lean body mass [9]: After six months the CrP group had an increase in lean
- changes in Body Mass composition indicies compared with placebo [10]: 200 and 400 mcg of CrP brought about significant
- changes in Body Mass composition indicies compared with placebo ([10]; listed as chromium picolinate): body composition improvement, loss of body fat, gain in nonfat mass
